Common to all, as to type: in vivo, mouse
For experiment [1], the system named is colony-forming unit-endothelial cells (CFU-EC) from bone marrow. Put plainly: EPC colony forming assay (CFU-EC) ex vivo, bone marrow of dosed mice. Conditions: for Bone Marrow CFU-EC: tibia bone marrow 6 h after final dose, 12 days culture; for Bone Marrow CFU-EC Fold Increase Over Control: vs vehicle control. How it is done: EPC colony forming assays were carried out as previously described. (Murphy et al. (2007) Arterioscler Thromb Vasc Biol 27:936-942.) Briefly, mononuclear cells were isolated from whole blood samples by erythrocyte depletion using red blood cell lysis buffer (eBioscience) according to the manufacturer's instructions. The remaining cells (50,000 cells/well) were plated on fibronectin coated 24-well dishes (BD, BioSciences Discovery Labware) and incubated in endothelial growth media (EGM-2 media, Cambrex) for 12 days. At the end the incubation period, EPC colonies were counted. In another series of experiments, male Swiss-Webster mice were administered various compounds of the present invention via oral gavage using a ball-tipped gavage needle. Animals treated by oral gavage received a 10 ml/kg volume of either 0.5% carboxymethyl cellulose (CMC) with 0.1% Polysorbate 80 (vehicle control) or various doses (10-100 mg/kg) of a compound of the present invention in 0.5% CMC with 0.1% Polysorbate 80. Animals were dosed once daily for 3 or 4 days. Six hours after the final dosing, bone marrow samples were taken from one tibia of each animal. Bone marrow samples were then analyzed for EPC function and differentiation using an EPC colony forming assay as described above.

The subject of experiment [2] is endothelial progenitor cells (EPCs), KDR+/CD34+ cells, in bone marrow. Kind of experiment: Bone marrow EPC levels by FACS after oral dosing in mice. Conditions: for Percent Bone Marrow EPCs: tibia bone marrow 6 h after final dose; for Percent Bone Marrow EPCs Fold Increase Over Control: vs vehicle control. As to the method:
(§1) To examine the effect of compounds and methods of the present invention on endothelial progenitor cell (EPC) mobilization and EPC levels, the following studies were performed. Male Swiss-Webster mice were administered various compounds of the present invention via oral gavage using a ball-tipped gavage needle. Animals treated by oral gavage received a 10 ml/kg volume of either 0.5% carboxymethyl cellulose (CMC) with 0.1% Polysorbate 80 (vehicle control) or various doses (10-100 mg/kg) of a compound of the present invention in 0.5% CMC with 0.1% Polysorbate 80. Animals were dosed once daily for 3 or 4 days. Six hours after the final dosing, 200 μl blood samples were collected for detection of EPCs by FACS analysis as previously described. (Vasa et al. (2001) Circ Res 89:e1-e7.) Briefly, mononuclear cells were isolated from whole blood samples by erythrocyte depletion using red blood cell lysis buffer (eBioscience) according to the manufacturer's instructions. The remaining cells were incubated for one hour with monoclonal antibodies directed against mouse CD34 and mouse KDR, cell surface markers for EPCs (BD Pharmingen). Following incubation with the anti-CD34 and anti-KDR monoclonal antibodies, the samples were washed three times with sort buffer (PBS, 1% fetal bovine serum) and resuspended in sort buffer containing 50 μg/ml of propidium iodide. Samples were then analyzed for the presence and quantitation of EPCs by flow cytometry (FACS Calibur, Becton Dickinson). The cytometer was set to acquire 10 000 events. Two or three samples obtained from each animal were analyzed and the average recorded. EPCs were determined as double positive KDR+/CD34+ cells.
To examine the effect of compounds and methods of the present invention on EPC levels in bone marrow, the following studies were performed. Male Swiss-Webster mice were administered various compounds of the present invention via oral gavage using a ball-tipped gavage needle. Animals treated by oral gavage received a 10 ml/kg volume of either 0.5% carboxymethyl cellulose (CMC) with 0.1% Polysorbate 80 (vehicle control) or various doses (10-100 mg/kg) of a compound of the present invention in 0.5% CMC with 0.1% Polysorbate 80. Animals were dosed once daily for 3 or 4 days. Six hours after the final dosing, bone marrow samples were taken from one tibia of each animal and suspended in buffer (PBS with 1% fetal bovine serum). Bone marrow suspensions were then filtered through nylon filters to remove stromal cells. Following filtration, the remaining cells were counted manually using a hemocytometer. Detection and quantitation of EPCs was performed by FACS analysis as described above in Example 1.
In general terms: Flow cytometry measures light scatter and fluorescence of single cells or particles in a stream.

In experiment [3] the test system is endothelial progenitor cells (EPCs), double positive KDR+/CD34+ cells, in blood. Put plainly: Blood EPC levels by FACS after oral dosing in mice. Particulars: for Blood EPCs / Percent Blood EPCs: blood 6 h after final dose; for Blood EPCs Fold Increase Over Control / Percent Blood EPCs Fold Increase Over Control: vs vehicle control. How it is done:
as §1

In experiment [4] the test system is colony-forming unit-endothelial cells (CFU-EC) from blood. Put plainly: EPC colony forming assay (CFU-EC) ex vivo, blood of dosed mice. Conditions: for Blood CFU-EC: blood 6 h after final dose, 12 days culture; for Blood CFU-EC Fold Increase Over Control: vs vehicle control. How it is done:
To examine the effect of compounds and methods of the present invention on increasing EPCs, wherein the EPCs are functional EPCs, i.e., EPCs that are able to differentiate into mature endothelial cells, the following studies were performed in which the frequency of endothelial colony-forming cells was evaluated ex vivo. In one series of experiments, male Swiss-Webster mice were administered various compounds of the present invention via oral gavage using a ball-tipped gavage needle. Animals treated by oral gavage received a 10 ml/kg volume of either 0.5% carboxymethyl cellulose (CMC) with 0.1% Polysorbate 80 (vehicle control) or various doses (10-100 mg/kg) of a compound of the present invention in 0.5% CMC with 0.1% Polysorbate 80. Animals were dosed once daily for 3 or 4 days. Six hours after the final dosing, 200 μl blood samples were collected for analysis of EPC function and differentiation using an EPC colony forming assay. EPC colony forming assays were carried out as previously described. (Murphy et al. (2007) Arterioscler Thromb Vasc Biol 27:936-942.) Briefly, mononuclear cells were isolated from whole blood samples by erythrocyte depletion using red blood cell lysis buffer (eBioscience) according to the manufacturer's instructions. The remaining cells (50,000 cells/well) were plated on fibronectin coated 24-well dishes (BD, BioSciences Discovery Labware) and incubated in endothelial growth media (EGM-2 media, Cambrex) for 12 days. At the end the incubation period, EPC colonies were counted.

The mark [5] stands for this setting: 60 mg/kg oral gavage once daily, 3 days.
Setting [6] is: 100 mg/kg oral gavage once daily, 4 days.

Take `COc1ccc(Oc2ccc3c(O)c(C(=O)NCC(=O)O)ncc3c2)cc1` [Compound A, {[4-Hydroxy-7-(4-methoxy-phenoxy)-isoquinoline-3-carbonyl]-amino}-acetic acid]: the “Bone Marrow CFU-EC” value in experiment [1] (setting [5]) is 29.0 colonies/50,000 cells; in experiment [1] (setting [6]) it was 24.8 colonies/50,000 cells. Further, the “Bone Marrow CFU-EC Fold Increase Over Control” value is 3.0 fold in experiment [1] (60 mg/kg oral, 3 days) and 3.2 fold in experiment [1] (100 mg/kg oral, 4 days). The “Percent Bone Marrow EPCs” value in experiment [2] (setting [5]) is recorded as 6.7 % gated cells; in experiment [2] (setting [6]) it was 14.1 % gated cells. Also, the “Percent Bone Marrow EPCs Fold Increase Over Control” value was determined as 2.0 fold in experiment [2] (60 mg/kg oral, 3 days) and 1.8 fold in experiment [2] (100 mg/kg oral, 4 days). Also, the “Blood EPCs” value is recorded as 24.7 cells/μl in experiment [3] (setting [5]) and 309.0 cells/μl in experiment [3] (setting [6]). For the same compound, the “Percent Blood EPCs” value was 2.6 % gated cells in experiment [3] (setting [5]) and 3.2 % gated cells in experiment [3] (setting [6]). The “Blood EPCs Fold Increase Over Control” value in experiment [3] (60 mg/kg oral, 3 days) came out at 2.4 fold; in experiment [3] (100 mg/kg oral, 4 days), 8.4 fold. Further, the “Percent Blood EPCs Fold Increase Over Control” value in experiment [3] (60 mg/kg oral, 3 days) was 2.0 fold; in experiment [3] (100 mg/kg oral, 4 days), 4.7 fold. Further, the “Blood CFU-EC” value in experiment [4] (setting [5]) is reported as 16.8 colonies/50,000 cells; in experiment [4] (setting [6]), 17.8 colonies/50,000 cells. For the same compound, the “Blood CFU-EC Fold Increase Over Control” value came out at 8.4 fold in experiment [4] (60 mg/kg oral, 3 days) and 3.63 fold in experiment [4] (100 mg/kg oral, 4 days).

Take `Cc1nc(C(=O)NCC(=O)O)c(O)c2ccc(Oc3ccccc3)cc12` [Compound B, [(4-Hydroxy-1-methyl-7-phenoxy-isoquinoline-3-carbonyl)-amino]-acetic acid]: the “Bone Marrow CFU-EC” value in experiment [1] (setting [5]) was 22.0 colonies/50,000 cells; in experiment [1] (setting [6]), 22.4 colonies/50,000 cells. Also, the “Bone Marrow CFU-EC Fold Increase Over Control” value in experiment [1] (60 mg/kg oral, 3 days) is on record as 2.2 fold; in experiment [1] (100 mg/kg oral, 4 days) it was 2.9 fold. In addition, the “Percent Bone Marrow EPCs” value in experiment [2] (setting [5]) is recorded as 9.0 % gated cells; in experiment [2] (setting [6]), 16.1 % gated cells. Also, the “Percent Bone Marrow EPCs Fold Increase Over Control” value is listed as 2.7 fold in experiment [2] (60 mg/kg oral, 3 days) and 2.1 fold in experiment [2] (100 mg/kg oral, 4 days). The “Blood EPCs” value in experiment [3] (setting [5]) is reported as 10.4 cells/μl; in experiment [3] (setting [6]), 304.0 cells/μl. The “Percent Blood EPCs” value in experiment [3] (setting [5]) came to 1.0 % gated cells; in experiment [3] (setting [6]), 3.0 % gated cells. Besides, the “Blood EPCs Fold Increase Over Control” value worked out at 1.0 fold in experiment [3] (60 mg/kg oral, 3 days) and 8.2 fold in experiment [3] (100 mg/kg oral, 4 days). The “Percent Blood EPCs Fold Increase Over Control” value came to 0.8 fold in experiment [3] (60 mg/kg oral, 3 days) and 4.3 fold in experiment [3] (100 mg/kg oral, 4 days). The “Blood CFU-EC” value in experiment [4] (setting [5]) is reported as 12.4 colonies/50,000 cells; in experiment [4] (setting [6]), 9.3 colonies/50,000 cells. For the same compound, the “Blood CFU-EC Fold Increase Over Control” value came out at 6.2 fold in experiment [4] (60 mg/kg oral, 3 days) and 1.9 fold in experiment [4] (100 mg/kg oral, 4 days).

The values are drawn from patent publication US20110039885A1, “METHODS FOR INCREASING ENDOTHELIAL PROGENITOR CELLS” (FibroGen, Inc., priority 2007, published 2011).
